Series [1] relates to HBV replication (extracellular virion HBV DNA). Briefly: HBV virion. It is filed as cell-based, hepatitis B virus. The settings on record: for activity against HBV (in words): 2.2.15 cells.
For series [2] the following is noted: administered after food; cited from earlier work.
The next series concerns HCV. The settings on record: cited from earlier work.
The conditions of series [3]: cited from earlier work.
The nature of the next series: Rat PK study. It is filed as in vivo.
The nature of another series: Plasma protein binding. It counts as in vitro ADME. The settings on record: ADME/Tox studies.
The subject of a further series is CYP isozymes. Briefly: CYP inhibition panel. It is filed as in vitro ADME.
Another series in a line: Dog PK study. It is filed as in vivo.
Series [4] in a line: Stability in human blood and plasma. It is filed as in vitro ADME. Particulars: one hour incubation.
The conditions of series [5]: cited from earlier work. This is another data set of the same source.
Series [6] deals with anaerobic bacteria. Particulars: cited from earlier work.
Series [7] relates to anaerobic bacteria. Put plainly: Activity against anaerobes.

A value given as a limit tells only on which side of the number the result lay.

Take `O=C(Nc1ccc(Cl)cc1)c1ccccc1O` [Compound 31]: the “activity against HBV (in words)” value in series [1] is given as “lack of activity”.
With `O=C(Nc1nc(-c2ccccc2)cs1)c1ccccc1O` [Compound 19], the “activity against HBV (in words)” value in [1] is listed as “modest level of activity”.
Turning to `N#Cc1cnc(NC(=O)c2ccccc2O)s1` [Compound 26], the “activity against HBV (in words)” value in series [1] is recorded as “slight activity”.
The same measure, in the same setting: for `O=C(Nc1ncc(C(F)(F)F)s1)c1ccccc1O` [Compound 28] the value was “slight activity”; for `CC(=O)Oc1ccccc1C(=O)Nc1ccc(Cl)cc1` [Compound 30], “low potency”.
With `O=C(Nc1cc(C(F)(F)F)ccc1Cl)c1ccccc1O` [Compound 35], the “activity against HBV (in words)” value in series [1] was “moderate activity”.
Consider `CC(=O)Oc1ccccc1C(=O)Nc1ncc([N+](=O)[O-])s1` [Compound 1, nitazoxanide], for which the oral bioavailability entry in [2] is recorded as “about 50%”.
Regarding `Cc1cccc(C(=O)Nc2ncc(Cl)s2)c1O` [Compound 11], the “activity against HBV (in words)” value in series [1] was “essentially inactive”.
On the same count and under the same terms, the entry for `CC(=O)Oc1ccccc1C(=O)Nc1ccc(Br)cc1` [Compound 32] is “useful activity”.
Turning to `O=C(Nc1nccs1)c1ccccc1O` [Compound 16], the “activity against HBV (in words)” value in series [1] is “complete loss of HBV activity”.
In the case of `CS(=O)(=O)c1csc(NC(=O)c2ccccc2O)n1` [Compound 24], the “inhibition of HCV” value in the series with HCV is “potent inhibitor”. Besides, in series [1], the “activity against HBV (in words)” value was “inactive”.
For the compound `O=C(Nc1ccc([N+](=O)[O-])cc1Cl)c1cc(Cl)ccc1O` [Niclosamide, reference compound], the aqueous solubility entry in [3] is “poor”. Also, the “activity against HBV (in words)” value in series [1] is “inactive”. Further, the EC50 in series [1] (Hepatitis B virus, read-out: EC50 (VIR)) was over 10 µM.
Regarding `CC(=O)Nc1cnc(NC(=O)c2ccccc2O)s1` [Compound 23, 2-Hydroxybenzoyl-N-(5-acetamidothiazol-2-yl)amide], the “activity against HBV (in words)” value in series [1] is “inactive”.
Same read-out and setting: for `COC(=O)c1cnc(NC(=O)c2ccccc2O)s1` [Compound 27] the value was “inactive”; for `O=C(Nc1ccc([N+](=O)[O-])cc1)c1ccccc1O` [Compound 34], “inactive”.
Consider `CC(=O)Oc1ccccc1C(=O)Nc1cc(C(F)(F)F)cc(C(F)(F)F)c1` [Compound 36], for which, in [1], the “activity against HBV (in words)” value is given as “moderate activity”.
On the same count and under the same terms, the entry for `CC(C)c1cnc(NC(=O)c2ccccc2O)s1` [Compound 17] is “inactive”; for `Cc1cc([N+](=O)[O-])c(Cl)cc1NC(=O)c1ccccc1O` [Compound 37] it is “good activity”.
In the case of `Cc1ccc(O)c(C(=O)Nc2ncc(Cl)s2)c1` [Compound 12, 2-Hydroxy-5-methylbenzoyl-N-(5-chlorothiazol-2-yl) amide], the oral absorption result in the series “Rat PK study” and in “Dog PK study” was “not orally absorbed” each time. Also, in the series “Plasma protein binding”, the protein bound is recorded as over 99%. For the same compound, in the series with CYP isozymes (14 different CYP isozymes), the “inhibition of CYP isozymes” value was “not an inhibitor”. Besides, the “stability in human blood and plasma” value in series [4] was “complete stability”.
As to `CS(=O)(=O)c1cnc(NC(=O)c2ccccc2O)s1` [Compound 25], the “activity against HBV (in words)” value in series [1] is “inactive”.
Regarding `CSc1cnc(NC(=O)c2ccccc2OC(C)=O)s1` [Compound 44], the “activity against HBV (in words)” value in [1] is “inactive”.
As to `O=C(Nc1ncc([N+](=O)[O-])s1)c1ccccc1O[C@@H]1O[C@H](C(=O)O)[C@@H](O)[C@H](O)[C@H]1O` [Compound 58], in series [5], the antiviral activity entry is “essentially devoid of antiviral activity”. In the series on anaerobic bacteria [6], the “activity against anaerobic bacteria” value is reported as “moderate activity”.
Regarding `CC(=O)Oc1ccccc1C(=O)Nc1ccc(I)cc1` [Compound 33], in [1], the “activity against HBV (in words)” value is on record as “useful activity”.
For `O=C(Nc1ncc(Cl)s1)c1ccccc1O` [Compound 3, 2-Hydroxybenzoyl-N-(5-chlorothiazol-2-yl) amide], in the series with CYP isozymes, the drug-drug interactions entry was “nor does it show unfavourable drug-drug interactions” and the “effects against a panel of CYPs” value is given as “no adverse effects”. In addition, the activity against anaerobes result with anaerobic bacteria [7] is “inactive”.
For `O=C(Nc1ncc(-c2ccc(Cl)cc2)s1)c1ccccc1O` [Compound 18], in series [1], the “activity against HBV (in words)” value was “inactive”.

The record behind these values is publication PMC3124649 (Journal of medicinal chemistry, 2011).
